Measurements reported in BigSolDB 2.1.

CN[C@@H]1[C@H](O)[C@H](NC)[C@H]2O[C@@]3(O)C(=O)C[C@@H](C)O[C@H]3O[C@@H]2[C@H]1O.Cl.Cl.O.O.O.O.O
solubility (mole fraction)
Conditions	278.15 K	283.15 K	288.15 K	293.15 K	298.15 K	303.15 K	308.15 K	313.15 K	318.15 K
in ethanol	0.00342	0.00412	0.00443	0.00484	0.00545	0.00629	0.00664	0.00738	0.00807
in isopropanol	0.00031	0.0004	0.00051	0.00066	0.00074	0.00086	0.00101	0.00114	0.00131
in methanol	0.00988	0.0138	0.0185	0.0226	0.032	0.0385	0.0439	0.0531	0.0629
in n-propanol	0.00098	0.00125	0.00157	0.00219	0.0027	0.00336	0.00373	0.00447	0.00531
